Assays:
Type in all cases: in vivo, Arabidopsis thaliana
[1] = tested on: Arabidopsis wild type and los5-1 plants; experiment: Transpirational water loss of detached aerial parts after ABA spray; conditions: sprayed with 100 μM ABA 3 hr before detaching aerial parts
Procedure: To determine whether los5 mutant plants are deficient in ABA or are insensitive to ABA, wild type and los5-1 plants at the rosette stage were sprayed with 100 μM ABA 3 hr before detaching the aerial parts for water loss measurement.
For water loss measurement, plants at the rosette stage were detached from soil surface and weighed immediately in a plastic weighing boat. The boat with the plants was then placed on laboratory bench (relative humidity ˜30%) and weighed at designated time intervals. There were four replicates for each line. Percent loss of fresh weight was calculated based on the initial weight of the plants.

LOS5/ABA3 gene = experiment: RNA blot analysis of LOS5/ABA3 transcript level; conditions: wild type seedlings, 100 μM ABA for 4 hr
Procedure: […] For NaCl or PEG treatment, seedlings on MS plates were transferred to filter paper saturated with MS solution supplemented with 300 mM NaCl or 30% of polyethylene glycol (molecular weight 6,000) and incubated for 5 hr. Unless otherwise stated, cold treatment for image analysis and RNA analysis were done by incubating seedlings growing in plates at 0° C. in the dark for 48 hr (for imaging) or 12 hr (for RNA analysis). Because longer treatment at −5 or −10° C. will result in freezing of the agar media, these freezing temperature treatments only lasted for 3 hr. After the treatment, the plates were placed at room temperature for 2 hr to thaw before luminescence images acquisition. For ABA plus NaCl treatment, seedlings were transferred onto a filter paper saturated with 300 mM NaCl in MS solution and sprayed immediately with 100 μM ABA. The plants were then incubated under cool-white light for 4 hr before luciferase imaging. For low temperature plus ABA treatment, seedlings on agar plates were briefly incubated at 0±1° C. for 10 min and then sprayed with 100 μM ABA and incubated in the dark at 0±1° C. for 48 hr before image analysis.
Ten-day-old seedlings on MS agar plates were treated were treated with cold, ABA, NaCl, or PEG as described in the above section. […] Total RNA from control or treated plants was extracted and analyzed as described (Ishitani et al., 1998). […]

RD29A-LUC = RD29A-LUC luminescence expression in seedlings, ABA given together with salt or cold stress
Procedure: Arabidopsis thaliana (C24 ecotype) expressing the RD29A-LUC transgene (referred to as the wild type) were obtained by Agrobacterium-mediated transformation (Ishitani et al., 1997). Seeds of wild type RD29A-LUC were mutagenized by ethyl methanesulfonate (Ishitani et al., 1997). M2 were planted on 0.6% agar plates containing full strength Murashige and Skoog salt base (MS salt base; JRH Biosceicnes, Lenex, Kans.) and were germinated and grown at 22±2° C. under continuous white light. One-week-old seedlings were screened for mutants with altered RD29A-LUC (i.e. luminescence) expression in response to low temperature, ABA, or osmotic stress using a thermoelectrically cooled CCD camera. For luminescence imaging, plants were sprayed with 1 mM luciferin in 0.01% Triton X-100 and then kept in the dark for 5 min before imaging. All images were acquired with a 5 min exposure time. The luminescence intensity of each seedling was quantified with the WinView software.
For ABA treatment, 100 μM (±)-cis, trans-abscisic acid in H2O was sprayed uniformly on leaves of seedlings and the plants were incubated at room temperature under cool-white light for 4 hr (for luminescence imaging) or 3 hr (for RNA analysis). For NaCl or PEG treatment, seedlings on MS plates were transferred to filter paper saturated with MS solution supplemented with 300 mM NaCl or 30% of polyethylene glycol (molecular weight 6,000) and incubated for 5 hr. Unless otherwise stated, cold treatment for image analysis and RNA analysis were done by incubating seedlings growing in plates at 0° C. in the dark for 48 hr (for imaging) or 12 hr (for RNA analysis). Because longer treatment at −5 or −10° C. will result in freezing of the agar media, these freezing temperature treatments only lasted for 3 hr. After the treatment, the plates were placed at room temperature for 2 hr to thaw before luminescence images acquisition. For ABA plus NaCl treatment, seedlings were transferred onto a filter paper saturated with 300 mM NaCl in MS solution and sprayed immediately with 100 μM ABA. […]

Structure (SMILES): CC1=CC(=O)CC(C)(C)C1(O)/C=C/C(C)=C\C(=O)O (racemic) [ABA, (±)-cis, trans-abscisic acid]
- rate of water loss ([1]; los5-1 plants at rosette stage): reduced substantially
- transpirational water loss ([1]; wild type plants at rosette stage): did not significantly affect
- transcript level of LOS5 (LOS5/ABA3 gene): increases significantly
- RD29A-LUC expression (RD29A-LUC; los5 and los6/aba1 seedlings, 100 μM ABA administered simultaneously with 300 mM NaCl, 4 hr): restored to the wild type level or higher
- RD29A-LUC expression (RD29A-LUC; los5 mutant seedlings, 100 μM ABA together with cold, 0° C. for 48 hr): failed to restore
- RD29A-LUC luminescence expression (RD29A-LUC; los6/aba1 seedlings, 100 μM ABA together with cold, 0° C. for 48 hr): close to the wild type level
